Data taken from patent US9040713B2, “Methods of managing blood sugar levels and compositions related thereto” (EMORY UNIVERSITY, priority 2010, dated 2015).

What was measured:
[1] = test system: IGF-1R; test: IGF-1R phosphorylation in cells (immunoblotting); assay type: cell-based; settings: CHO-IGF-1R cells, 10 μM, 15 min
Protocol: (§1) (A) DDN and CSN activate IR and its downstream signaling in CHO-IR cells. […] The cell lysates were analyzed by immunoblotting with anti-phospho-IR antibodies, or immunoprecipitated by PY20 and analyzed using anti-IR and anti-IRS-1, respectively. (B) DDN and CSN induce IR phosphorylation in a dose-dependent manner. CHO-IR cells were treated with the small compounds at different concentrations for 15 min, and the IR phosphorylation was monitored by immunoprecipitation and immunoblotting. (C) DDN, CSN induce IR phosphorylation in a time-dependent manner. […] (D) DDN and CSN induce IR phosphorylation and its downstream signaling in a dose-dependent manner. […] (E) DDN and CSN cannot induce IGF-1R or EGFR phosphorylation. CHO-IGF-1R or HEK293 cells were treated with EGF (100 nM), IGF-1 (100 nM), DDN (10 μM) or CSN (10 μM) for 15 min. The cell lysates were analyzed by immunoblotting with anti-pIGF-1R and anti-pEGFR.
(§2) (A) Chemical structure of 4524-E7. (B) Effect of 4524-E7 and other 1,4-naphthoquinone derivatives on IR phosphorylation in CHO-IR cells. CHO-IR cells were cultured in 96-well plates and treated with 5 μM compounds for 15 min at 37 C. Cells were lysed, and IR phosphorylations were tested by ELISA. The IR phosphorylation activities of the tested compounds were expressed as a percentage of the vehicle. (C) 4524-E7 and 1,4-naphthoquinone derivates activate IR and its downstream signaling in CHO-IR cells. […] The cell lysates were analyzed by immunoblotting with various indicated antibodies. The phosphorylated IR was immunoprecipitated using PY20 and analyzed by immunoblotting with anti-IR13 antibody. […] The phosphorylation of each receptor was determined by Western blot using specific antibodies as indicated. (E) 4524-E7 activates IR through its ICD. Upper panel: Diagram of chimaeric receptors. Lower panel: His-tagged wild-type IR, IGFR-IR, IR-IGFR, and IR-EGFR constructs were transfected into CHO cells followed vehicle or 5 μM 4524-E7 treatment for 30 min. Then the cells were lysated and the transfected receptor fused to His tag were pulled down with Ni+ beads, followed by western blot against anti-p-Tyr and anti-His. The cell lysates were tested with anti-p-Akt and anti-Akt.
(§3) A cell-based ELISA assay was developed with an IR stably transfected Chinese Hamster Ovary (CHO-IR) cell line. The cells were seeded in a 96-well plate and treated with 10 μM (15 min) compounds. The cell lysates were subjected to the sandwich ELISA using immobilized anti-phosphotyrosine antibody and anti-IR antibody. […] Among the positive hits, 1,4-naphthoquinone compounds were identified that can selectively activate IR but not IGF-1R (FIG. 1A). […] Total IR tyrosine phosphorylation was further confirmed by immunoprecipitation using anti-phosphotyrosine (PY20) antibody (FIG. 2A, 3rd panel). […]

[2] = molecular target: IR (Homo sapiens, UniProt P06213); test: Immunoblotting of IR phosphorylation and downstream signaling in CHO-IR cells; assay type: cell-based; set-up: expressed in transfected cells; host or cells: CHO (CHO-IR, gift from Dr. Nicholas Webster, UCSD)
Protocol: The cell lysates were analyzed by immunoblotting with anti-phospho-IR antibodies, or immunoprecipitated by PY20 and analyzed using anti-IR and anti-IRS-1, respectively. […] The cell lysates were analyzed by immunoblotting with anti-pIGF-1R and anti-pEGFR. […]
A cell-based ELISA assay was developed with an IR stably transfected Chinese Hamster Ovary (CHO-IR) cell line. […] The cell lysates were subjected to the sandwich ELISA using immobilized anti-phosphotyrosine antibody and anti-IR antibody.

[3] = test system: C57BL/6J mice; test: Lethality after administration to C57BL/6J mice; assay type: in vivo, mouse; settings: intraperitoneal, even at low doses (1 mg/kg)
Protocol: However, CSN was lethal to the mice even at low doses (1 mg/kg) (data not shown). […] The kinetics of DDN in lowering blood glucose is different from that of insulin.

[4] = test system: EGFR; test: EGFR phosphorylation in cells (immunoblotting); assay type: cell-based; settings: HEK293 cells, 10 μM, 15 min
Protocol: as §1, §2, §3

IR, sequence (P06213 763-1382 limits assumed): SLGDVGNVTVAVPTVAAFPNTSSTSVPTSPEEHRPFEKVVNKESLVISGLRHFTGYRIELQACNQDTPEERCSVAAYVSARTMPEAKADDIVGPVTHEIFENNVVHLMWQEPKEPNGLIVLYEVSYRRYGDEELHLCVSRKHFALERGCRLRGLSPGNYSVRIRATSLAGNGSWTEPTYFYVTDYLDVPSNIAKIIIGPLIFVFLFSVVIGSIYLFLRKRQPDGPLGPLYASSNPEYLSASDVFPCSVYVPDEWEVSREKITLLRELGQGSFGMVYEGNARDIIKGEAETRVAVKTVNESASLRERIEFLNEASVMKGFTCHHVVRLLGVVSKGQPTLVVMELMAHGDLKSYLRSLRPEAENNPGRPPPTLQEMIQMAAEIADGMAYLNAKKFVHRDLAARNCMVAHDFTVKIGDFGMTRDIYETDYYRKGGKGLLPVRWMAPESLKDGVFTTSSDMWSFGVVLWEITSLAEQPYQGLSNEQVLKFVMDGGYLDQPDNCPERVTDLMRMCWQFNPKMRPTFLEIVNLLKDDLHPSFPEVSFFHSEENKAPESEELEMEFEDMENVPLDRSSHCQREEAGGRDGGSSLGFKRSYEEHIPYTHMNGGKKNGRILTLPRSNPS
IR, sequence (P06213 28-758 limits assumed): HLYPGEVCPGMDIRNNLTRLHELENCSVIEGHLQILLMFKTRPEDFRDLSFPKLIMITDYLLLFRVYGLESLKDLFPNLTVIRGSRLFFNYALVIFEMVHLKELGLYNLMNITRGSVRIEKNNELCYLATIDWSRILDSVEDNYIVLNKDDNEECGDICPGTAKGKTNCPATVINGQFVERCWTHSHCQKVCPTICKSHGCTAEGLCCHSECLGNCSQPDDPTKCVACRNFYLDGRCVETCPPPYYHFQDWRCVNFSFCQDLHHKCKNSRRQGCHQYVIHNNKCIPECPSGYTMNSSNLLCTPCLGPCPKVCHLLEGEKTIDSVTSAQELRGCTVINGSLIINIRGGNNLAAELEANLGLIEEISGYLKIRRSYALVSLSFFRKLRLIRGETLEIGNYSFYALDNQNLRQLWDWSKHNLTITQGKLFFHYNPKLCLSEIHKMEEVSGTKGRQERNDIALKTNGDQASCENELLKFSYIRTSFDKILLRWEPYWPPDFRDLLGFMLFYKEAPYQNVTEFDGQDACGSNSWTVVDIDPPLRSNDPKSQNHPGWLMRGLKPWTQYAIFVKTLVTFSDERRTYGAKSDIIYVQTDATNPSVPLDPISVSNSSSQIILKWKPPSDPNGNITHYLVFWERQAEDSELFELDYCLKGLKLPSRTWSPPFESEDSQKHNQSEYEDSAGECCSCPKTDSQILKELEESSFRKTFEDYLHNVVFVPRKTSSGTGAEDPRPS

CSC1=C(SC)C(=O)c2ccccc2C1=O [CSN, 2,3-Bis-methylsulfanyl-1,4-naphthoquinone]
IGF-1R activation [1]: Neither IGF-1R nor EGFR was activated
time at which IR activation peaked ([2]; 5 μM): 60 min
time at which IR phosphorylation starts ([2]; 5 μM): 5 to 15 min
tyrosine phosphorylation of IRS-1 ([2]; 5 μM, 15 min): also increased
tyrosine phosphorylation of the IR β subunit in Y1146 and Y1158/1162/1163 ([2]; 5 μM, 15 min): strongly stimulated
concentration stimulating the IR signal cascades ([2]; DDN or CSN 30 min, insulin 15 min): 5 µM
lethality [3]: lethal to the animals
EGFR activation [4]: Neither IGF-1R nor EGFR was activated
